According to US20260262643A1, “HERBICIDAL BENZOXAZINES” (FMC CORPORATION, priority 2022, published 2026):

How the values were obtained:
barnyardgrass [1] = assay: Test C preemergence; assay type: in vivo, Echinochloa crusgalli; settings: 0 to 100 scale (0 no effect, 100 complete control)
Outline: (§1)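 Visual injury score, 0–100 (100 = complete control), taken 10 days after treatment relative to untreated controls. Pre: directed spray onto soil over sown seeds. Post: foliar spray at one- to two-leaf stage, 2–10 cm. Solvent/surfactant formulation; loam–sand soil; greenhouse.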

blackgrass [2] = assay: Test C preemergence; assay type: in vivo, Alopecurus myosuroides; settings: 0 to 100 scale (0 no effect, 100 complete control)
Outline: as §1

corn [3] = assay: Test C preemergence; assay type: in vivo, Zea mays; settings: 0 to 100 scale (0 no effect, 100 complete control)
Outline: as §1

green foxtail [4] = assay: Test C preemergence; assay type: in vivo, Setaria viridis; settings: 0 to 100 scale (0 no effect, 100 complete control)
Outline: as §1

kochia [5] = assay: Test C preemergence; assay type: in vivo, Bassia scoparia; settings: 0 to 100 scale (0 no effect, 100 complete control)
Outline: as §1

oat, wild [6] = assay: Test C preemergence; assay type: in vivo, Avena fatua; settings: 0 to 100 scale (0 no effect, 100 complete control)
Outline: as §1

pigweed, palmer [7] = assay: Test C preemergence; assay type: in vivo, Amaranthus palmeri; settings: 0 to 100 scale (0 no effect, 100 complete control)
Outline: as §1

ragweed [8] = assay: Test C preemergence; assay type: in vivo, Ambrosia artemisiifolia; settings: 0 to 100 scale (0 no effect, 100 complete control)
Outline: as §1

ryegrass, Italian [9] = assay: Test C preemergence; assay type: in vivo, Lolium multiflorum; settings: 0 to 100 scale (0 no effect, 100 complete control)
Outline: as §1

soybean [10] = assay: Test C preemergence; assay type: in vivo, Glycine max; settings: 0 to 100 scale (0 no effect, 100 complete control)
Outline: as §1

wheat [11] = assay: Test C preemergence; assay type: in vivo, Triticum aestivum; settings: 0 to 100 scale (0 no effect, 100 complete control)
Outline: as §1

barnyardgrass [12] = assay: Test C postemergence; assay type: in vivo, Echinochloa crusgalli; settings: 10 days
Outline: as §1

blackgrass [13] = assay: Test C postemergence; assay type: in vivo, Alopecurus myosuroides; settings: 10 days
Outline: as §1

corn [14] = assay: Test C postemergence; assay type: in vivo, Zea mays; settings: 10 days
Outline: as §1

green foxtail [15] = assay: Test C postemergence; assay type: in vivo, Setaria viridis; settings: 10 days
Outline: as §1

kochia [16] = assay: Test C postemergence; assay type: in vivo, Bassia scoparia; settings: 10 days
Outline: as §1

oat, wild [17] = assay: Test C postemergence; assay type: in vivo, Avena fatua; settings: 10 days
Outline: as §1

pigweed, palmer [18] = assay: Test C postemergence; assay type: in vivo, Amaranthus palmeri; settings: 10 days
Outline: as §1

ragweed [19] = assay: Test C postemergence; assay type: in vivo, Ambrosia artemisiifolia; settings: 10 days
Outline: as §1

ryegrass, Italian [20] = assay: Test C postemergence; assay type: in vivo, Lolium multiflorum; settings: 10 days
Outline: as §1

soybean [21] = assay: Test C postemergence; assay type: in vivo, Glycine max; settings: 10 days
Outline: as §1

wheat [22] = assay: Test C postemergence; assay type: in vivo, Triticum aestivum; settings: 10 days
Outline: as §1

galium = assay: Test C postemergence; assay type: in vivo, Galium aparine; settings: 10 days
Outline: as §1

horseweed = assay: Test C postemergence; assay type: in vivo, Erigeron canadensis; settings: Postemergence, 500 g ai/ha, 10 days, visual 0 to 100 scale (0 no effect, 100 complete control)
Outline: as §1

barnyardgrass [23] = assay: Test D flooded paddy test; assay type: in vivo, Echinochloa crus-galli; settings: 250 g ai/ha, applied to paddy water, visual rating after 13 to 14 days, scale 0 to 100 (0 no effect, 100 complete control)
Outline: (§2)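 Post-flood water application at the 2-leaf stage; 3 cm flood depth kept constant; visual control rating 0–100 after 13–14 days greenhouse growth.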

ducksalad = assay: Test D flooded paddy test; assay type: in vivo, Heteranthera limosa; settings: 250 g ai/ha, applied to paddy water, visual rating after 13 to 14 days, scale 0 to 100 (0 no effect, 100 complete control)
Outline: as §2

rice = assay: Test D flooded paddy test; assay type: in vivo, Oryza sativa; settings: 250 g ai/ha, applied to paddy water, visual rating after 13 to 14 days, scale 0 to 100 (0 no effect, 100 complete control)
Outline: as §2

sedge, umbrella = assay: Test D flooded paddy test; assay type: in vivo, Cyperus difformis; settings: 250 g ai/ha, applied to paddy water, visual rating after 13 to 14 days, scale 0 to 100 (0 no effect, 100 complete control)
Outline: as §2

[24] = Preemergence, 500 g ai/ha, visual rating after 10 days
[25] = Test C, preemergence, 125 g ai/ha
[26] = 125 g ai/ha, postemergence, 0 to 100 scale, 0 no effect, 100 complete control
[27] = Postemergence, 500 g ai/ha, visual 0 to 100 scale (0 no effect, 100 complete control)

Compound: Cc1ccc(-n2cnc(C3CCC3)n2)cc1C(=O)N1CC(C(F)(F)F)Oc2c(Cl)cccc21 (single isomer, unassigned) [Compound 219]
- Plant response rating, Barnyardgrass (barnyardgrass [1]; [24]): 100
- Barnyardgrass plant response rating (barnyardgrass [1]; [25]): 80
- Plant response rating, Blackgrass (blackgrass [2]; [24]): 40
- Blackgrass plant response rating (blackgrass [2]; [25]): 0
- Plant response rating, Corn (corn [3]; [24]): 20
- Corn plant response rating (corn [3]; [25]): 10
- Plant response rating, Foxtail, Green (green foxtail [4]; [24]): 100
- Foxtail, Green plant response rating (green foxtail [4]; [25]): 100
- Plant response rating, Kochia (kochia [5]; [24]): 100
- Kochia plant response rating (kochia [5]; [25]): 90
- Plant response rating, Oat, Wild (oat, wild [6]; [24]): 70
- Oat, Wild plant response rating (oat, wild [6]; [25]): 30
- Plant response rating, Pigweed, Palmer (pigweed, palmer [7]; [24]): 100
- Pigweed, Palmer plant response rating (pigweed, palmer [7]; [25]): 100
- Plant response rating, Ragweed (ragweed [8]; [24]): 70
- Ragweed plant response rating (ragweed [8]; [25]): 30
- Plant response rating, Ryegrass, Italian (ryegrass, Italian [9]; [24]): 80
- Ryegrass, Italian plant response rating (ryegrass, Italian [9]; [25]): 90
- Plant response rating, Soybean (soybean [10]; [24]): 90
- Soybean plant response rating (soybean [10]; [25]): 70
- Plant response rating, Wheat (wheat [11]; [24]): 50
- Wheat plant response rating (wheat [11]; [25]): 20
- Plant response rating, Barnyardgrass (barnyardgrass [12]; [26]): 70
- Plant response rating, Barnyardgrass (barnyardgrass [12]; [27]): 100
- Plant response rating, Blackgrass (blackgrass [13]; [26]): 40
- Plant response rating, Blackgrass (blackgrass [13]; [27]): 50
- Plant response rating, Corn (corn [14]; [26]): 20
- Plant response rating, Corn (corn [14]; [27]): 30
- Plant response rating, Foxtail, Green (green foxtail [15]; [26]): 80
- Plant response rating, Foxtail, Green (green foxtail [15]; [27]): 90
- Plant response rating, Kochia (kochia [16]; [26]): 80
- Plant response rating, Kochia (kochia [16]; [27]): 90
- Plant response rating, Oat, Wild (oat, wild [17]; [26]): 10
- Plant response rating, Oat, Wild (oat, wild [17]; [27]): 40
- Plant response rating, Pigweed, Palmer (pigweed, palmer [18]; [26]): 100
- Plant response rating, Pigweed, Palmer (pigweed, palmer [18]; [27]): 100
- Plant response rating, Ragweed (ragweed [19]; [26]): 50
- Plant response rating, Ragweed (ragweed [19]; [27]): 90
- Plant response rating, Ryegrass, Italian (ryegrass, Italian [20]; [26]): 50
- Plant response rating, Ryegrass, Italian (ryegrass, Italian [20]; [27]): 70
- Plant response rating, Soybean (soybean [21]; [26]): 100
- Plant response rating, Soybean (soybean [21]; [27]): 100
- Plant response rating, Wheat (wheat [22]; [26]): 20
- Plant response rating, Wheat (wheat [22]; [27]): 40
- Plant response rating, Galium (galium; [26]): 100
- Plant response rating, Galium (galium; [27]): 100
- Plant response rating, Horseweed (horseweed): 70
- Plant response rating, Barnyardgrass (Flood) (barnyardgrass [23]): 10
- Plant response rating, Ducksalad (Flood) (ducksalad): 50
- Plant response rating, Rice (Flood) (rice): 0
- Plant response rating, Sedge, Umbrella (Flood) (sedge, umbrella): 50
